According to patent US12453715B2, “Use of artemether in the prevention and treatment of Alzheimer's disease” (UNIVERSITY OF MACAU, priority 2018, dated 2025):

Key:
[1] = system: PC12 cells; experiment: MTT assay, Aβ1-42-induced cytotoxicity in PC12 cells; format: cell-based; settings: 1 μM Aβ1-42 for 24 hours
Description: PC12 cells were cultured in DMEM (Dulbecco's Modified Eagle's) medium supplemented with 10% fetal bovine serum (FBS) and 100 μg/ml streptomycin in a humidified incubator 5% CO2 at 37° C. The cells were seeded in 96-well plates, and then treated with Aβ1-42a and artemether. MTT assay was used to access cell viability. MTT (3-(4,5-dimethylthiazole-2)-2,5-diphenyltetrazolium bromide) the detection principle relies on the enzymatic reduction of MTT to water-insoluble purple crystals-formazan particles, which is catalyzed by mitochondrial succinate dehydrogenase produced in living cells. The light absorption value is measured by an enzyme-linked immunoassay at 570 nm wavelength allowing to determine the number of living cells based on the amount of formazan produced. In short, PC12 cells were seeded in 96-well plates. In the next day the medium was replaced with fresh DMEM, and the cells pretreated with different concentrations of artemether or untreated followed by incubation with 1 μM Aβ1-42 for 24 hours. After 24 hours, MTT (0.5 mg/mL) was added to each well and further incubated for another 3 hours at 37° C. After incubation, the cells and MTT formazan crystals were dissolved with DMSO, and the absorbance was measured at 570 nm. Cell viability was calculated as a percentage of the control group.

[2] = system: PC12 cells; experiment: AMPK inhibitor compound C against the protective effect of artemether in PC12 cells (MTT, flow cytometry, Western blot); format: cell-based
Description: Apoptosis was evaluated by flow cytometry. PC12 cells were seeded into 6-well plates, treated, digested with 0.25% trypsin, harvested, washed twice with ice cold 1×PBS and suspended with buffer. […] were stained with 5 μL Annexin-V-FITC and 10 μL propidium iodide solution, incubated for 30 min in the dark, and the apoptotic cells in each group were determined and analyzed using a flow cytometer. The other steps are the same as in Embodiment 2.4 and Embodiment 10.

SMILES: CO[C@H]1O[C@@H]2O[C@@]3(C)CC[C@H]4[C@H](C)CC[C@@H]([C@H]1C)[C@@]24OO3 [artemether]
- effective dose for protection from Aβ1-42-induced cytotoxicity [1]: about 10 μM
- protection from Aβ1-42-induced cytotoxicity (cell viability, MTT) ([1]; artemether pretreatment): protected PC12 cells from Aβ1-42-induced cytotoxicity in a concentration-dependent manner

SMILES: c1cc(-c2cnn3cc(-c4ccc(OCCN5CCCCC5)cc4)cnc23)ccn1 [compound C]
- effect on phosphorylation of AMPK and GSK3β (ser9) induced by artemether ([2]; Western blot, GAPDH as internal control): reversed the phosphorylation of AMPK and GSK3β (ser9) induced by artemether
- effect on the protection by artemether from Aβ1-42-induced apoptosis (flow cytometry) ([2]; compound C pretreatment with artemether, Aβ1-42 (1 μM)): alleviated the protective effect of artemether on Aβ1-42-induced apoptosis
- effect on the cell survival effect of artemether (cell viability, MTT) ([2]; compound C pretreatment with artemether, Aβ1-42 (1 μM) for 24 hours): abolished the elevated cell survival effect of artemether
